Read-outs that look alike come from different tables or passages of the source.
Test system: dicamba sensitive soybean plants
Settings: dicamba 2240 g ae/ha, AMS 917 g/ha and K2CO3 buffer 4000 g/ha where named, 0.25% v/v non-ionic surfactant (Preference), 8 glass petri plates
Text: The method of a bioassay humidome study utilizes a treated substrate (e.g. glass, soil, potting mix or plants) placed in a plastic tray covered with a clear plastic humidome (overall size 25 cm wide×50 cm long×20 cm tall; source: Hummert) along with 2 dicamba sensitive soybean plants (1-2 true leaves). Individual humidomes representing different study treatments and replicates are placed in a greenhouse environment (with a typical diurnal temperature range of 25 to 40 C and 75 to 98 % RH).
After 18 to 24 hours, the sensitive soybean plants are removed from the humidomes and placed on a greenhouse bench for observation and visual response or injury assessment over a 2-3 weeks period. The level of injury to soybean plants is an indirect measurement of amount of dicamba exposure from treated substrate.

Compound	% bioassay soybean response [%]	% bioassay soybean response (listed as dicamba-BAPMA)
CNC.COc1c(Cl)ccc(Cl)c1C(=O)O [Dicamba-DMA, dicamba dimethylamine]	45	
CN(CCCN)CCCN.COc1c(Cl)ccc(Cl)c1C(=O)O [Dicamba-BAPMA, dicamba N,N-bis(3-aminopropyl)methylamine salt]	9	lower soybean response than dicamba-DGA or dicamba-DMA

Reference: US20220386602A1, “METHODS OF USING A COMPOSITION COMPRISING AN ANIONIC PESTICIDE AND A BUFFER” (BASF CORPORATION, priority 2019, published 2022)
